# Results published in DBAASP.
# Several values for one entry are separate records, joined by “and”; a condition that tells them apart may be missing. Equal values may be shown once.
# What was measured:
# Assay in all cases: ≥ marks a high value that may be exact or a test limit, other limits are often not marked, values filed in µg/mL are converted to µM
# Enterococcus faecalis = test system: Enterococcus faecalis
# Escherichia coli 1106 = test system: Escherichia coli 1106
# Micrococcus luteus = test system: Micrococcus luteus
# Pseudomonas alginovora = test system: Pseudomonas alginovora
# Salmonella typhimurium = test system: Salmonella typhimurium
# Staphylococcus aureus = test system: Staphylococcus aureus
# Aerococcus viridans = test system: Aerococcus viridans
# [1] = test system: Pseudoalteromonas carrageenovora ATCC 43555
# Bacillus megaterium = test system: Bacillus megaterium
# Escherichia coli D31 = test system: Escherichia coli D31
# Escherichia coli D22 = test system: Escherichia coli D22
# [2] = test system: Escherichia coli PCM 2057
# [3] = test system: Staphylococcus aureus PCM 1944
# [4] = test system: Streptococcus agalactiae ATCC 27956
# [5] = test system: Enterococcus faecalis ATCC 29212
# [6] = test system: Staphylococcus haemolyticus
# [7] = test system: Pseudomonas aeruginosa ATCC 27853
# [8] = test system: Streptococcus pneumoniae ATCC 49619
# Escherichia coli = test system: Escherichia coli
# Streptococcus pneumoniae = test system: Streptococcus pneumoniae
# Proteus mirabilis = test system: Proteus mirabilis
# Enterobacter cloacae = test system: Enterobacter cloacae
# Klebsiella oxytoca = test system: Klebsiella oxytoca
# Proteus vulgaris = test system: Proteus vulgaris
# Enterococcus faecium = test system: Enterococcus faecium
# Serratia marcescens = test system: Serratia marcescens
# Citrobacter freundii = test system: Citrobacter freundii
# [9] = test system: Klebsiella pneumoniae ATCC 700603
# [10] = test system: Streptococcus oralis ATCC 35037
# Klebsiella aerogenes = test system: Klebsiella aerogenes
# Pseudomonas aeruginosa = test system: Pseudomonas aeruginosa
# [11] = test system: Staphylococcus epidermidis ATCC 14990
# [12] = test system: Staphylococcus epidermidis
# [13] = test system: Acinetobacter calcoaceticus
# [14] = test system: Salmonella enterica serovar Typhimurium
# Theileria equi = test system: Theileria equi
# [15] = test system: Escherichia coli O157:H7 ATCC 35150
# [16] = test system: Streptococcus mutans UA159
# [17] = test system: Streptococcus mutans comD
# [18] = test system: Streptococcus gordonii DL1
# [19] = test system: Streptococcus sanguinis NY101
# [20] = test system: Escherichia coli KCCM 11569
# [21] = test system: Bacillus subtilis KCCM 11495
smiles,measurement,setting,value
C[C@@H]1NC(=O)[C@H](Cc2c[nH]c3ccccc23)NC(=O)CNC(=O)[C@H](CCCCN)NC(=O)[C@@H]2CSSC[C@@H](C(=O)O)NC(=O)[C@H](CCCN=C(N)N)NC(=O)[C@H](Cc3ccccc3)NC(=O)[C@@H]3CSSC[C@H](NC(=O)[C@H](CCCCN)NC(=O)[C@H](C)NC(=O)[C@H](CCCCN)NC(=O)[C@@H]4CSSC[C@H](NC(=O)[C@H](Cc5ccc(O)cc5)NC(=O)[C@H](CSSC[C@H](NC(=O)CN)C(=O)N[C@@H](C)C(=O)N[C@@H](CO)C(=O)N[C@@H](CCCN=C(N)N)C(=O)N4)NC(=O)[C@H](CCCN=C(N)N)NC(=O)CNC(=O)[C@H](CCCN=C(N)N)NC(=O)[C@H](Cc4ccccc4)NC(=O)[C@H](CO)NC(=O)[C@H](C)NC(=O)[C@H](CO)NC1=O)C(=O)N[C@@H](CCCCN)C(=O)N3)C(=O)N[C@@H](C)C(=O)NCC(=O)N[C@@H](CCCN=C(N)N)C(=O)N[C@@H](CCCN=C(N)N)C(=O)N2 [GCASRCKAKCAGRRCKGWASASFRGRCYCKCFRC],MIC,Enterococcus faecalis,3.54 µM
same,MIC,Escherichia coli 1106,10 µM
same,MIC,Micrococcus luteus,0.849 µM
same,MIC,Pseudomonas alginovora,3.54 µM
same,MIC,Salmonella typhimurium,10 µM
same,MIC,Staphylococcus aureus,7.07 µM
same,MIC,Aerococcus viridans,0.849 µM
same,MIC,[1],3.54 µM
same,MIC,Bacillus megaterium,0.849 µM
same,MIC,Escherichia coli D31,3.54 µM
same,MIC,Escherichia coli D22,7.07 µM
CC[C@H](C)[C@H](N)C(=O)NCC(=O)N[C@H]1CSSC[C@@H](C(=O)N[C@@H](Cc2ccccc2)C(=O)N[C@H](C(=O)N[C@@H](CCCCN)C(N)=O)C(C)C)NC(=O)[C@@H]2CCCN2C(=O)[C@H](CCCN=C(N)N)NC(=O)[C@@H]2CCCN2C(=O)[C@@H]2CCCN2C(=O)[C@H]([C@@H](C)CC)NC(=O)[C@H](CO)NC(=O)[C@H](CCCCN)NC(=O)[C@H]([C@@H](C)O)NC(=O)[C@H](Cc2c[nH]c3ccccc23)NC1=O [IGCWTKSIPPRPCFVK],MIC,[2],≥ 546 µM
same,MIC,[3],≥ 546 µM
NC(=O)CC[C@H](N)C(=O)N[C@@H](Cc1c[nH]c2ccccc12)C(=O)NCC(=O)N[C@@H](CCCN=C(N)N)C(=O)N[C@@H](CCCN=C(N)N)C(=O)N[C@H]1CSSC[C@@H]2NC(=O)[C@H](Cc3ccc(O)cc3)NC(=O)[C@H](CCCN=C(N)N)NC(=O)[C@H](CCCN=C(N)N)NC(=O)CNC(=O)[C@@H]3CCCN3C(=O)CNC(=O)[C@H](Cc3c[nH]c4ccccc34)NC(=O)CNC(=O)[C@H](CSSC[C@@H](C(=O)O)NC(=O)[C@H](Cc3c[nH]c4ccccc34)NC(=O)[C@H](CCCN=C(N)N)NC(=O)[C@H](CCCN=C(N)N)NC2=O)NC1=O [QWGRRCCGWGPGRRYCRRWC],MIC,[4],≥ 62.9 µM
same,MIC,[5],15.7 µM and 31.5 µM
same,MIC,[6],4.45 µM
same,MIC,[7],62.9 µM
same,MIC,[8],7.86 µM and 15.7 µM
same,MIC,Escherichia coli,2.22 µM
same,MIC,Streptococcus pneumoniae,8.9 µM
same,MIC,Staphylococcus aureus,3.15 µM
same,MIC,Proteus mirabilis,25.2 µM
same,MIC,Enterobacter cloacae,2.22 µM
same,MIC,Klebsiella oxytoca,17.8 µM
same,MIC,Proteus vulgaris,17.8 µM
same,MIC,Enterococcus faecium,1.57 µM
same,MIC,Serratia marcescens,4.45 µM
same,MIC,Citrobacter freundii,≥ 50.3 µM
same,MIC,[9],47.2 µM and 62.9 µM
same,MIC,[10],31.5 µM and ≥ 78.6 µM
same,MIC,Klebsiella aerogenes,8.9 µM
same,MIC,Pseudomonas aeruginosa,> 50.3 µM
same,MIC,[11],31.5 µM and ≥ 62.9 µM
same,MIC,[12],8.9 µM
same,MIC,[13],≥ 50.3 µM
CC[C@H](C)[C@H](NC(=O)CNC(=O)[C@H](C)NC(=O)[C@H](CS)NC(=O)[C@H](Cc1ccc(O)cc1)NC(=O)CNC(=O)CNC(=O)[C@H](CCCN=C(N)N)NC(=O)[C@H](CCCN=C(N)N)NC(=O)CNC(=O)[C@@H](NC(=O)[C@@H](N)CO)[C@@H](C)CC)C(=O)N[C@H](C(=O)N[C@@H](CCCCN)C(=O)N[C@@H](CCC(N)=O)C(=O)N[C@H](C(=O)N[C@@H](CS)C(=O)N[C@H](C(=O)N[C@@H](CS)C(=O)N[C@@H](Cc1ccc(O)cc1)C(=O)N[C@@H](CCCN=C(N)N)C(=O)O)[C@@H](C)O)[C@@H](C)O)[C@@H](C)CC [SIGRRGGYCAGIIKQTCTCYR],MIC,[14],10 µM
same,MIC,Staphylococcus aureus,2 µM
same,MIC,Theileria equi,5 µM
same,MIC,Pseudomonas aeruginosa,2 µM
same,MIC,[15],2 µM
CC(C)C[C@H](NC(=O)[C@H](CCCN=C(N)N)NC(=O)[C@H](Cc1ccccc1)NC(=O)[C@H](Cc1ccccc1)NC(=O)[C@@H](N)[C@@H](C)O)C(=O)N[C@@H](Cc1ccccc1)C(=O)N[C@@H](CC(N)=O)C(=O)N[C@@H](CCCN=C(N)N)C(=O)N[C@@H](CO)C(=O)NCC(=O)NCC(=O)NCC(=O)N[C@@H](Cc1ccccc1)C(=O)N[C@@H](CCCCN)C(=O)N[C@@H](CCCCN)C(=O)N[C@@H](Cc1ccccc1)C(=O)N[C@@H](Cc1c[nH]c2ccccc12)C(=O)N[C@@H](CCCCN)C(=O)N[C@@H](Cc1c[nH]c2ccccc12)C(=O)N[C@@H](Cc1ccccc1)C(=O)N[C@@H](CCCN=C(N)N)C(=O)N[C@@H](CCCN=C(N)N)C(=O)N[C@@H](Cc1ccccc1)C(=O)O [TFFRLFNRSGGGFKKFWKWFRRF],MIC,[16],2.5 µM
same,MIC,[17],2.5 µM
same,MIC,[18],10 µM
same,MIC,[19],20 µM
CC(C)C[C@H](NC(=O)[C@@H](NC(=O)CNC(=O)[C@H](CCCCN)NC(=O)[C@H](C)NC(=O)[C@H](CS)NC(=O)[C@H](CC(N)=O)NC(=O)[C@H](CC(C)C)NC(=O)CNC(=O)[C@H](Cc1cnc[nH]1)NC(=O)[C@H](Cc1cnc[nH]1)NC(=O)[C@H](CC(C)C)NC(=O)[C@H](CC(C)C)NC(=O)[C@H](C)NC(=O)[C@H](CC(N)=O)NC(=O)[C@H](CC(C)C)NC(=O)[C@@H](N)Cc1c[nH]c2ccccc12)C(C)C)C(N)=O [WLNALLHHGLNCAKGVL],MIC,[20],1.52 µM
same,MIC,[21],0.538 µM
